Among the data in BindingDB's records for doi:10.1016/S0960-894X(01)80714-9 (1993) are IC50 values, retold here.

Assay [1] is described as follows: The compound was evaluated in vitro for the inhibition of rat leukocyte elastase(RLE).
The nature of assay [2]: The compound was evaluated in vitro for the inhibition of pancreatitic porcine elastase(PPE).

Where only a bound is given, the exact number is not on record here.

As a reminder, the IC50 is the point on the concentration scale where inhibition reaches its midpoint. A high value points to weaker potency in that assay.

As for `CO[C@@H]1C(=O)N(C(C)=O)[C@@H]1C(C)=O` [(3S,4S)-1,4-Diacetyl-3-methoxy-azetidin-2-one], the results for the concentration for half-maximal inhibition (IC50) in assay [1] and in assay [2] were 11 µM and 26 µM, respectively.

As for `CO[C@@H]1C(=O)N(C(C)=O)[C@@H]1c1ccccc1` [(3S,4R)-1-Acetyl-3-methoxy-4-phenyl-azetidin-2-one], the IC50 turned out to be 0.4 µM in assay [1] and 0.7 µM in assay [2].

Turning to `CCCC[C@@H]1C(=O)N(C(C)=O)[C@@H]1C(C)=O` [(3S,4S)-1,4-Diacetyl-3-butyl-azetidin-2-one], the results for the 50% inhibitory concentration (IC50) in assay [1] and in assay [2] were 37 µM and greater than 160 µM, respectively.
